Results as given in patent publication US20050054559A1, “Compounds for sustained release of orally delivered drugs” (priority 2000, published 2005).
Like-named read-outs stand apart in the source and are kept apart here. Square brackets hold non-standard residues; d marks the D form. Peptide text beside a SMILES is read from it. * marks the point of attachment. Bn = c1ccc(C*)cc1

How the values were obtained:
[1] = biological target: T1, IBAT (Homo sapiens, UniProt Q12908); test: Electrogenic transport in Xenopus oocytes expressing IBAT; format: cell-based; settings: for % Max. (GDC): relative to glycodeoxycholate
Source text: (§1) RNA preparation: Human IBAT and LBAT Transporter cDNAs were subcloned into a modified pGEM plasmid that contains 5′ and 3′ untranslated sequences from the Xenopus β-actin gene. These sequences increase RNA stability and protein expression. Plasmid cDNA was linearized and used as template for in vitro transcription (Epicentre Technologies transcription kit, 4:1 methylated:non-methylated GTP).
(§2) Xenopus oocyte isolation. Xenopus laevis frogs were anesthetized by immersion in Tricaine ([…] in deionized water) for 15 min. Oocytes were removed and digested in frog ringer solution (90 mM NaCl, 2 mM KCl, 1 mM MgCl2, 10 mM NaHEPES, pH 7.45, no CaCl2) with 1 mg/mL collagenase (Worthington Type 3) for 80-100 min with shaking. The oocytes were washed 6 times, and the buffer changed to frog ringer solution containing CaCl2 (1.8 mM). Remaining follicle cells were removed if necessary. Cells were incubated at 16° C., and each oocyte injected with […] RNA in […] solution.
(§3) Electrophysiology measurements. Transport currents were measured 2-14 days after injection, using a standard two-electrode electrophysiology set-up (Geneclamp 500 amplifier, Digidata 1320/PCLAMP software and ADInstruments hardware and software were used for signal acquisition). Electrodes ([…]) were microfabricated using a Sutter Instrument puller and filled with 3M KCl. The bath was directly grounded (transporter currents were less than 0.3 μA). Bath flow was controlled by an automated perfusion system (ALA Scientific Instruments, solenoid valves).
For transporter pharmacology, oocytes were clamped at −60 to −90 mV, and continuous current measurements acquired using PowerLab Software and an ADInstruments digitizer. Current signals were lowpass filtered at 20 Hz and acquired at 4-8 Hz. All bath and drug-containing solutions were frog ringers solution containing CaCl2. Drugs were applied for 10-30 seconds until the induced current reached a new steady-state level, followed by a control solution until baseline currents returned to levels that preceded drug application. The difference current (baseline subtracted from peak current during drug application) reflected the net movement of charge resulting from electrogenic transport and was directly proportional to tranport rate. Recordings were made from a single oocyte for up to 60 min, enabling 30-40 separate compounds to be tested per oocyte. […]. Using this normalization procedure Vmax (i.e. maximal induced current) for different compounds tested on different oocytes could be compared.

[2] = biological target: T2, LBAT (Homo sapiens, UniProt Q14973); test: Inhibition of radiolabeled taurocholate uptake in LBAT-transfected CHO cells; format: cell-based; settings: radiolabeled competition assay in transporter-expressing CHO cells
T2 construct: expressed in transfected cells; host or cells: CHO cells
Method: (§4) CHO cells transfected with either the IBAT or LBAT transporter were seeded into 96-well microtiter plates at 100,000 cells/well in 100 μL DMEM containing 10% serum, glutamine and Penstrep. After overnight incubation the media was removed and test compound (25 μL) added at 2× the final desired concentration. Tritiated taurocholate (50,000 CPM/well) was diluted with cold substrate to a final concentration of 5 μM and 25 μL/well of this mixture was added to the plate. After incubating for 1 h at room temperature the solution was removed and the plate washed 4× with PBS at 4° C. 200 μL/well of scintillant is added and the plate then read in a Wallac microbeta counter. The inhibition data is processed by standard methods to calculate an inhibition constant Ki for the test compound.

[3] = biological target: T1, IBAT; test: Inhibition of radiolabeled taurocholate uptake in IBAT-transfected CHO cells; format: cell-based; set-up: expressed in transfected cells; host or cells: CHO cells; settings: radiolabeled competition assay in transporter-expressing CHO cells
Method: as §4

[4] = biological target: T3, hPEPT1 (Homo sapiens, UniProt P46059); test: Electrogenic transport in Xenopus oocytes expressing hPEPT1; format: cell-based; settings: for % Max. (Gly-Sar): hPEPT1-expressing oocytes, test compound 1 mM, relative to Gly-Sar; for transport by hPEPT1 (in words): summary of Example 34
T3 sequence (P46059 1-708): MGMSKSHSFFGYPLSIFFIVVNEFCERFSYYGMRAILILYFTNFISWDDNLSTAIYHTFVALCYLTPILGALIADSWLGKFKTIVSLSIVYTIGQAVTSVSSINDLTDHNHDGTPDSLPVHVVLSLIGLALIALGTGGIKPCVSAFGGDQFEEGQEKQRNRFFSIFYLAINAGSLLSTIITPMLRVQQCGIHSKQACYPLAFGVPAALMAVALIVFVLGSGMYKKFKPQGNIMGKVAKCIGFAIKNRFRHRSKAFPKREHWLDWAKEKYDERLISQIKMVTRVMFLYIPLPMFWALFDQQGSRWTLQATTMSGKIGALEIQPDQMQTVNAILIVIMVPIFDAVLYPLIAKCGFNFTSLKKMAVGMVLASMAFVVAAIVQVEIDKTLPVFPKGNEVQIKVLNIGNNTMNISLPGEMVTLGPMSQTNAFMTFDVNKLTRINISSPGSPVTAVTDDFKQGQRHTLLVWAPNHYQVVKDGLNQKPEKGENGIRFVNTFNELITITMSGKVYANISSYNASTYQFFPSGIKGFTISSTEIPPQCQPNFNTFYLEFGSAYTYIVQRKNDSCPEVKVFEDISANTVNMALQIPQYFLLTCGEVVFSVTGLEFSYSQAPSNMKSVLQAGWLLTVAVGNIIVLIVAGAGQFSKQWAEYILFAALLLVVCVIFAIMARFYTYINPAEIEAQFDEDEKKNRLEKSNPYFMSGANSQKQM
Source text: as §1, with “Rat” for “Human IBAT”, “human PEPT1 and PEPT2 transporter” for “LBAT Transporter”
as §2, §3
(§5) For transporter pharmacology, oocytes were clamped at −60 to −90 mV, and continuous current measurements acquired using PowerLab Software and an ADInstruments digitizer. Current signals were lowpass filtered at 20 Hz and acquired at 4-8 Hz. All bath and drug-containing solutions were frog ringers solution containing CaCl2. Drugs were applied for 10-30 seconds until the induced current reached a new steady-state level, followed by a control solution until baseline currents returned to levels that preceded drug application. The difference current (baseline subtracted from peak current during drug application) reflected the net movement of charge resulting from electrogenic transport and was directly proportional to tranport rate. Recordings were made from a single oocyte for up to 60 min, enabling 30-40 separate compounds to be tested per oocyte. […] To compare results between oocytes expressing different levels of transport activity, a saturating concentration of glycyl-sarcosine (1 mM) was used as a common reference to normalize results from test compounds. Using this normalization procedure Vmax (i.e. maximal induced current) for different compounds tested on different oocytes could be compared.

[5] = biological target: T4, hPEPT2 (Homo sapiens, UniProt Q16348); test: Electrogenic transport in Xenopus oocytes expressing hPEPT2; format: cell-based; settings: test compound 1 mM, relative to Gly-Sar
T4 sequence (Q16348 1-729): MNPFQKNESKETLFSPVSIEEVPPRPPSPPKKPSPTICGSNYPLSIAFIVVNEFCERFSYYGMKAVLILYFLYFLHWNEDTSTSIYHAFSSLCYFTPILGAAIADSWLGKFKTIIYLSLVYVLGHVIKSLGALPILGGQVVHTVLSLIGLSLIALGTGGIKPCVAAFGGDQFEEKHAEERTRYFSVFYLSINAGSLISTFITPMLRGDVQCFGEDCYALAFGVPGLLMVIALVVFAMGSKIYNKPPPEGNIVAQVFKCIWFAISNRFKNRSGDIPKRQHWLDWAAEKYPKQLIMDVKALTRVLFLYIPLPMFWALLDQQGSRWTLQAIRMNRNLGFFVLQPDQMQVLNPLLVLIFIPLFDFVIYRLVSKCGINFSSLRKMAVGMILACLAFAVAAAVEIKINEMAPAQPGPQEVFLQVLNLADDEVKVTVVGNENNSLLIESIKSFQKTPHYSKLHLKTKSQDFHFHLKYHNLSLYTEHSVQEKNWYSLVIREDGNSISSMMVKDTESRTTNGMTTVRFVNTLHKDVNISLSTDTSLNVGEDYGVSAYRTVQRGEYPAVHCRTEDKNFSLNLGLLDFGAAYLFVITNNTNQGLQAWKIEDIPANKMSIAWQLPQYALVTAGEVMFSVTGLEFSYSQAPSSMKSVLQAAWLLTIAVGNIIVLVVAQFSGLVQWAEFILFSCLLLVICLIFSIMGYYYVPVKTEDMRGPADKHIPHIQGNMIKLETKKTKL
Source text: as §1, with “Rat” for “Human IBAT”, “human PEPT1 and PEPT2 transporter” for “LBAT Transporter”
as §2, §3, §5

[6] = Pharmacokinetics in rats following oral administration (Examples 38 and 40); settings: male, Sprague-Dawley, rat, in vivo, 25 mg/kg
Method: (§6) The pharmacokinetics of the prodrug (4) were examined in rats. Three groups of four male Sprague-Dawley rats (approx 200 g) with jugular cannulae each received one of the following treatments: A) a single bolus intravenous injection of gabapentin (25 mg/kg, as a solution in water); B) a single oral dose of gabapentin (25 mg/kg, as a solution in water) administered by oral gavage; C) a single oral dose of (4) (85.25 mg/kg, as a solution in water) administered by oral gavage. Animals were fasted overnight prior to dosing and until 4 hours post-dosing. Serial blood samples were obtained over 24 hours following dosing and blood was processed for plasma by centrifugation. Plasma samples were stored at −80° C. until analyzed. Concentrations of (4) or gabapentin in plasma samples were determined by LC/MS/MS as described in Example 35. Plasma (50 μL) was precipitated by addition of […] of methanol and supernatent was injected directly onto the LC/MS/MS system. The method was linear for gabapentin over the concentration range 0.001 to 20 ng/mL and for (4) over the concentration range 0.01 to 10 ng/mL.
as §6, with “prodrug Cholyl-Phe-Gabapentin (7g)” for “prodrug (4)”, “of (7g) (103.5” for “of (4) (85.25”, “of (7g)” for “of (4)”, “or (2)” for “or gabapentin”, “described above.” for “described in Example 35.”, “system.” for “system. The method was linear for gabapentin over the concentration range 0.001 to 20 ng/mL and for (4) over the concentration range 0.01 to 10 ng/mL.”

[7] = in rats; Salach et al, Pharm. Res. 1994; cited from earlier work

T1 sequence (Q12908 whole entry): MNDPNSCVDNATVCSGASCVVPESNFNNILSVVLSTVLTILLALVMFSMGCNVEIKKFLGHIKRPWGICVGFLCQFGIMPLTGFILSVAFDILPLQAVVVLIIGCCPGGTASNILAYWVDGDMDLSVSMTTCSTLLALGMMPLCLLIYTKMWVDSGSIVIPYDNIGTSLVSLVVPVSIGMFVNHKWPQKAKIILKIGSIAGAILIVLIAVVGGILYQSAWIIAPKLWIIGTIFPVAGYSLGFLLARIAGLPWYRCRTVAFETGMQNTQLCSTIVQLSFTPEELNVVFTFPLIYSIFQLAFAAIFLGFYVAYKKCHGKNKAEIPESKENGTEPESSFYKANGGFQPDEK
T2 sequence (Q14973 whole entry): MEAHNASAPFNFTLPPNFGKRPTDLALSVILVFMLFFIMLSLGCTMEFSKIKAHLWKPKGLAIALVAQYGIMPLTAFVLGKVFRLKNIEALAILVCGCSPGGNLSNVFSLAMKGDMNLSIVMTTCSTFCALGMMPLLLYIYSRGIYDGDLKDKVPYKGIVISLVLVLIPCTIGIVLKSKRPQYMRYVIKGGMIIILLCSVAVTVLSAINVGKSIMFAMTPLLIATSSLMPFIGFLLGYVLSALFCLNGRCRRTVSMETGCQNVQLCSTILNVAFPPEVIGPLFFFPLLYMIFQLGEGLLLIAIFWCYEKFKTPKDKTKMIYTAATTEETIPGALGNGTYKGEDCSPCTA

Row | Compound | % Max. (GDC) [1] | % Max. (Gly-Sar) [4] | % Max. (Gly-Sar) [5] | also measured
1 | CC(CCC(=O)NCC(=O)NCC1(CC(=O)O)CCCCC1)C1CCC2C3C(O)CC4CC(O)CCC4(C)C3CC(O)C12C (centres unmarked) [(7a), Cholyl-Gly-Gabapentin] | 67% |  |  | 
2 | CC(CCC(=O)NC(Cc1ccccc1)C(=O)NCC1(CC(=O)O)CCCCC1)C1CCC2C3C(O)CC4CC(O)CCC4(C)C3CC(O)C12C (centres unmarked) [(7g), Cholyl-Phe-Gabapentin] | 28% |  |  | IC50 [2]: 0.5 µM; EC50 [1]: 140 µM; IC50 [3]: 92 µM
3 | CC(CCC(=O)NC(Cc1ccc(O)c(O)c1)C(=O)O)C1CCC2C3C(O)CC4CC(O)CCC4(C)C3CC(O)C12C (centres unmarked) [(20), Cholyl-Dopa] | 0% |  |  | IC50 [2]: 5 µM; IC50 [3]: 83 µM
4 | C[C@H](CCC(=O)N[C@@H](Cc1ccc2oc(=O)oc2c1)C(=O)O)[C@H]1CC[C@H]2[C@@H]3[C@H](O)C[C@@H]4C[C@H](O)CC[C@]4(C)[C@H]3C[C@H](O)[C@]12C [(23), Cholyl-Dopa-(3,4-carbonate)] | 25% |  |  | IC50 [2]: 1.8 µM; IC50 [3]: 74 µM
5 | N[C@@H](CCC(=O)O)C(=O)N[C@@H](CSCc1ccccc1)C(=O)O [(27), H-Glu-Cys(Bzl)-OH] (H-Glu-Cys(Bn)-OH) |  | 41% | 56% | transport by hPEPT1 (in words) [4]: efficient substrates
6 | N[C@@H](CCC(=O)O)C(=O)N[C@@H](COCc1ccccc1)C(=O)O [(28), H-Glu-Ser(Bzl)-OH] (H-Glu-Ser(Bn)-OH) |  | 58% | 82% | transport by hPEPT1 (in words) [4]: efficient substrates
7 | N[C@@H](CC(=O)O)C(=O)N[C@@H](CSCc1ccccc1)C(=O)O [(30), H-Asp-Cys(Bzl)-OH] (H-Asp-Cys(Bn)-OH) |  | 55% | 78% | transport by hPEPT1 (in words) [4]: efficient substrates
8 | N[C@@H](CCC(=O)O)C(=O)N[C@H](CSCc1ccccc1)C(=O)O [(34), H-Glu-D-Cys(Bzl)-OH] (H-Glu-[dC](Bn)-OH) |  | 1% | 0% | 
9 | N[C@@H](CCC(=O)O)C(=O)N[C@H](COCc1ccccc1)C(=O)O [(35), H-Glu-D-Ser(Bzl)-OH] (H-Glu-[dS](Bn)-OH) |  | 1% | 0% | 
10 | N[C@@H](CC(=O)O)C(=O)N[C@H](CSCc1ccccc1)C(=O)O [(36), H-Asp-D-Cys(Bzl)-OH] (H-Asp-[dC](Bn)-OH) |  | 2% | 0% | 
11 | N[C@@H](CC(=O)O)C(=O)N[C@H](COCc1ccccc1)C(=O)O [(37), H-Asp-D-Ser(Bzl)-OH] (H-Asp-[dS](Bn)-OH) |  | 1% | 0% | 
12 | Cl.NCC1(CC(=O)O)CCCCC1 [gabapentin, 1-aminomethyl-1-cyclohexaneacetic acid hydrochloride, reference compound] |  |  |  | bioavailability [6]: 87 ± 18%; Tmax ([6]; po): 2.8 ± 2.5 h; half-life ([6]; po): 2.4 ± 0.5 h
13 | N-Phthaloylglycine |  |  |  | half-life [7]: ~0.167 h
